Reference: PubChem BioAssay (NCI)
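Interpolation was linear, between the two tested concentrations surrounding the appropriate level; five concentrations were tested over 48 hours in 96-well plates. The concentration for full growth arrest is given as TGI.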

What was measured:
Test in all cases: DTP human tumour cell line panel, 48 h
786-0 renal = test system: 786-0 renal
A498 renal = test system: A498 renal
A549 NSCLC = test system: A549 NSCLC
ACHN renal = test system: ACHN renal
BT-549 breast = test system: BT-549 breast
CAKI-1 renal = test system: CAKI-1 renal
COLO 205 colon = test system: COLO 205 colon
DU-145 prostate = test system: DU-145 prostate
EKVX NSCLC = test system: EKVX NSCLC
HCC-2998 colon = test system: HCC-2998 colon
HCT-116 colon = test system: HCT-116 colon
HCT-15 colon = test system: HCT-15 colon
HOP-62 NSCLC = test system: HOP-62 NSCLC
HOP-92 NSCLC = test system: HOP-92 NSCLC
HS 578T breast = test system: HS 578T breast
HT29 colon = test system: HT29 colon
IGROV1 ovarian = test system: IGROV1 ovarian
K-562 leukemia = test system: K-562 leukemia
M14 melanoma = test system: M14 melanoma
MCF7 breast = test system: MCF7 breast
MDA-MB-231 breast = test system: MDA-MB-231 breast
MDA-MB-435 = test system: MDA-MB-435
MDA-N = test system: MDA-N
MOLT-4 leukemia = test system: MOLT-4 leukemia
NCI-H23 lung = test system: NCI-H23 lung
NCI-H460 lung = test system: NCI-H460 lung
NCI-H522 lung = test system: NCI-H522 lung
OVCAR-3 ovarian = test system: OVCAR-3 ovarian
OVCAR-4 ovarian = test system: OVCAR-4 ovarian
OVCAR-5 ovarian = test system: OVCAR-5 ovarian
OVCAR-8 ovarian = test system: OVCAR-8 ovarian
PC-3 prostate = test system: PC-3 prostate
RPMI-8226 leukemia = test system: RPMI-8226 leukemia
RXF 393 renal = test system: RXF 393 renal
SF-268 CNS = test system: SF-268 CNS
SF-295 CNS = test system: SF-295 CNS
SF-539 CNS = test system: SF-539 CNS
SK-MEL-2 melanoma = test system: SK-MEL-2 melanoma
SK-MEL-28 melanoma = test system: SK-MEL-28 melanoma
SK-MEL-5 melanoma = test system: SK-MEL-5 melanoma
SK-OV-3 ovarian = test system: SK-OV-3 ovarian
SN12C renal = test system: SN12C renal
SNB-19 CNS = test system: SNB-19 CNS
SNB-75 CNS = test system: SNB-75 CNS
SW-620 colon = test system: SW-620 colon
T-47D breast = test system: T-47D breast
TK-10 renal = test system: TK-10 renal
U251 CNS = test system: U251 CNS
UACC-257 melanoma = test system: UACC-257 melanoma
UACC-62 melanoma = test system: UACC-62 melanoma
UO-31 renal = test system: UO-31 renal
KM12 colon = test system: KM12 colon
MALME-3M melanoma = test system: MALME-3M melanoma
NCI-H226 lung = test system: NCI-H226 lung

Measured: TGI

C=CCCCC1(C)CCNC1=S (stereo not drawn)
> 100 µM: 786-0 renal | A498 renal | A549 NSCLC | ACHN renal | BT-549 breast | CAKI-1 renal | COLO 205 colon | DU-145 prostate | EKVX NSCLC | HCC-2998 colon | HCT-116 colon | HCT-15 colon | HOP-62 NSCLC | HOP-92 NSCLC | HS 578T breast | HT29 colon | IGROV1 ovarian | K-562 leukemia | M14 melanoma | MCF7 breast | MDA-MB-231 breast | MDA-MB-435 | MDA-N | MOLT-4 leukemia | NCI-H23 lung | NCI-H460 lung | NCI-H522 lung | OVCAR-3 ovarian | OVCAR-4 ovarian | OVCAR-5 ovarian | OVCAR-8 ovarian | PC-3 prostate | RPMI-8226 leukemia | RXF 393 renal | SF-268 CNS | SF-295 CNS | SF-539 CNS | SK-MEL-2 melanoma | SK-MEL-28 melanoma | SK-MEL-5 melanoma | SK-OV-3 ovarian | SN12C renal | SNB-19 CNS | SNB-75 CNS | SW-620 colon | T-47D breast | TK-10 renal | U251 CNS | UACC-257 melanoma | UACC-62 melanoma | UO-31 renal

COc1cc(C2c3cc4c(cc3OC(NCCO)C2C)OCO4)cc(OC)c1O (stereo not drawn)
21.8 µM: HCC-2998 colon
77.3 µM: SNB-75 CNS
36.9 µM: SK-MEL-2 melanoma
46.9 µM: HCT-15 colon
84.2 µM: COLO 205 colon
> 100 µM: 786-0 renal | A549 NSCLC | BT-549 breast | CAKI-1 renal | HCT-116 colon | HOP-92 NSCLC | HT29 colon | IGROV1 ovarian | KM12 colon | M14 melanoma | MALME-3M melanoma | MCF7 breast | MDA-MB-231 breast | NCI-H226 lung | NCI-H23 lung | OVCAR-3 ovarian | OVCAR-4 ovarian | OVCAR-5 ovarian | OVCAR-8 ovarian | PC-3 prostate | RXF 393 renal | SF-268 CNS | SF-295 CNS | SK-MEL-28 melanoma | SN12C renal | SNB-19 CNS | SW-620 colon | T-47D breast | TK-10 renal | UACC-62 melanoma | UO-31 renal
4.56 µM: MDA-N
42.2 µM: SF-539 CNS
19 µM: RPMI-8226 leukemia
56.5 µM: SK-MEL-5 melanoma
87.8 µM: U251 CNS
6.34 µM: MDA-MB-435
